Several values for one entry are separate records, joined by “and”; a condition that tells them apart may be missing. Identical values can stand only once.
Tested on: 598228-144-R-J1-PDC complex spheroids, viability
Assay: Anticancer human tumor 598228-144-R-J1-PDC patient-derived serous endometrial adenocarcinoma cell line growth inhibition [CLK]
Settings: for viability, T/C: stronger effect = lower value
In short: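 Patient-derived tumor cells grown as complex spheroids with HUVEC endothelial cells and mesenchymal stem cells, treated with drug combinations. Concentrations descend in half-log steps from near clinical Cmax, or from 10 microM if Cmax unknown.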

[1] = curve of first compound, second compound 0.0316 µM
[2] = curve of first compound, second compound 0.1 µM
[3] = curve of first compound, second compound 0.316 µM
[4] = curve of first compound, second compound 1 µM
[5] = curve of first compound, second compound 3.16 µM
[6] = curve of first compound, second compound 10 µM
[7] = second compound 0.0316 µM, first compound 0.0316 µM
[8] = second compound 0.0316 µM, first compound 0.1 µM
[9] = second compound 0.0316 µM, first compound 0.316 µM
[10] = second compound 0.0316 µM, first compound 1 µM
[11] = second compound 0.0316 µM, first compound 3.16 µM
[12] = second compound 0.0316 µM, first compound 10 µM
[13] = second compound 0.1 µM, first compound 0.0316 µM
[14] = second compound 0.1 µM, first compound 0.1 µM
[15] = second compound 0.1 µM, first compound 0.316 µM
[16] = second compound 0.1 µM, first compound 1 µM
[17] = second compound 0.1 µM, first compound 3.16 µM
[18] = second compound 0.1 µM, first compound 10 µM
[19] = second compound 0.316 µM, first compound 0.0316 µM
[20] = second compound 0.316 µM, first compound 0.1 µM
[21] = second compound 0.316 µM, first compound 0.316 µM
[22] = second compound 0.316 µM, first compound 1 µM
[23] = second compound 0.316 µM, first compound 3.16 µM
[24] = second compound 0.316 µM, first compound 10 µM
[25] = second compound 1 µM, first compound 0.0316 µM
[26] = second compound 1 µM, first compound 0.1 µM
[27] = second compound 1 µM, first compound 0.316 µM
[28] = second compound 1 µM, first compound 1 µM
[29] = second compound 1 µM, first compound 3.16 µM
[30] = second compound 1 µM, first compound 10 µM
[31] = second compound 3.16 µM, first compound 0.0316 µM
[32] = second compound 3.16 µM, first compound 0.1 µM
[33] = second compound 3.16 µM, first compound 0.316 µM
[34] = second compound 3.16 µM, first compound 1 µM
[35] = second compound 3.16 µM, first compound 3.16 µM
[36] = second compound 3.16 µM, first compound 10 µM
[37] = second compound 10 µM, first compound 0.0316 µM
[38] = second compound 10 µM, first compound 0.1 µM
[39] = second compound 10 µM, first compound 0.316 µM
[40] = second compound 10 µM, first compound 1 µM
[41] = second compound 10 µM, first compound 3.16 µM
[42] = second compound 10 µM, first compound 10 µM
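Further: spheroids exposed to compounds for seven days before readout.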
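Wherever viability, T/C is given: 100% = DMSO vehicle control wells.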

## C#Cc1c(F)ccc2cc(O)cc(-c3ncc4c(N5CC6CCC(C5)N6)nc(OCC56CCCN5CC(F)C6)nc4c3F)c12 (stereo not given) + CNC(=O)c1ccc(Nc2nc(OC3CCCC3)c3c(-c4ccc5nc(C)oc5c4)c[nH]c3n2)c(OC)c1
[1]
  IC50: > 10 µM
[2]
  IC50: > 10 µM
[3]
  IC50: > 10 µM
[4]
  IC50: > 10 µM
[5]
  IC50: > 10 µM
[6]
  IC50: > 10 µM
[7]
  viability, T/C: 111%
[8]
  viability, T/C: 112%
[9]
  viability, T/C: 117%
[10]
  viability, T/C: 125%
[11]
  viability, T/C: 99.5%
[12]
  viability, T/C: 94.1%
[13]
  viability, T/C: 99.7%
[14]
  viability, T/C: 104%
[15]
  viability, T/C: 109%
[16]
  viability, T/C: 102%
[17]
  viability, T/C: 98.1%
[18]
  viability, T/C: 88.3%
[19]
  viability, T/C: 120%
[20]
  viability, T/C: 102%
[21]
  viability, T/C: 132%
[22]
  viability, T/C: 100%
[23]
  viability, T/C: 110%
[24]
  viability, T/C: 90.7%
[25]
  viability, T/C: 101%
[26]
  viability, T/C: 90.3%
[27]
  viability, T/C: 98.3%
[28]
  viability, T/C: 98.2%
[29]
  viability, T/C: 104%
[30]
  viability, T/C: 83.3%
[31]
  viability, T/C: 98.5%
[32]
  viability, T/C: 92.5%
[33]
  viability, T/C: 81.8%
[34]
  viability, T/C: 83.6%
[35]
  viability, T/C: 95.2%
[36]
  viability, T/C: 88.5%
[37]
  viability, T/C: 83.3%
[38]
  viability, T/C: 80.7%
[39]
  viability, T/C: 90.8%
[40]
  viability, T/C: 81.9%
[41]
  viability, T/C: 102%
[42]
  viability, T/C: 78.8%

## COC1C=CCC(C)C(C)S(=O)(=O)NC(=O)c2ccc3c(c2)N(CC2CCC21)CC1(CCCc2cc(Cl)ccc21)CO3 (stereo not given) + CNC(=O)c1ccc(Nc2nc(OC3CCCC3)c3c(-c4ccc5nc(C)oc5c4)c[nH]c3n2)c(OC)c1
[1]
  IC50: 3.22 µM
[2]
  IC50: 2.59 µM
[3]
  IC50: 1.13 µM
[4]
  IC50: 2.72 µM
[5]
  IC50: 2.01 µM
[6]
  IC50: 2.81 µM
[7]
  viability, T/C: 111%
[8]
  viability, T/C: 108%
[9]
  viability, T/C: 81.7%
[10]
  viability, T/C: 69.3%
[11]
  viability, T/C: 54.9%
[12]
  viability, T/C: 25.3%
[13]
  viability, T/C: 105%
[14]
  viability, T/C: 96.9%
[15]
  viability, T/C: 61.7%
[16]
  viability, T/C: 70.6%
[17]
  viability, T/C: 59.6%
[18]
  viability, T/C: 22.9%
[19]
  viability, T/C: 102%
[20]
  viability, T/C: 91.1%
[21]
  viability, T/C: 60.5%
[22]
  viability, T/C: 53.9%
[23]
  viability, T/C: 42.5%
[24]
  viability, T/C: 31.5%
[25]
  viability, T/C: 99%
[26]
  viability, T/C: 82.8%
[27]
  viability, T/C: 65.9%
[28]
  viability, T/C: 57.8%
[29]
  viability, T/C: 55.5%
[30]
  viability, T/C: 37.2%
[31]
  viability, T/C: 92.4%
[32]
  viability, T/C: 78.8%
[33]
  viability, T/C: 67.3%
[34]
  viability, T/C: 54.9%
[35]
  viability, T/C: 55.3%
[36]
  viability, T/C: 25.1%
[37]
  viability, T/C: 86.5%
[38]
  viability, T/C: 83.8%
[39]
  viability, T/C: 67.2%
[40]
  viability, T/C: 51.9%
[41]
  viability, T/C: 58.3%
[42]
  viability, T/C: 35.4%

## CC(CO)NC(=O)c1cc(-c2ccc(Cl)cc2)nn(-c2cnn(C)c2)c1=O (stereo not given)
Compound 0.0316 µM
  viability, T/C: 92.9% and 110%
Compound 0.1 µM
  viability, T/C: 89.4% and 109%
Compound 0.316 µM
  viability, T/C: 98.2% and 116%
Compound 1 µM
  viability, T/C: 98.4% and 106%
Compound 3.16 µM
  viability, T/C: 76.6% and 111%
Compound 10 µM
  viability, T/C: 89.9% and 73.9%
Curve of compound
  IC50: > 10 µM

## CNC(=O)c1ccc(Nc2nc(OC3CCCC3)c3c(-c4ccc5nc(C)oc5c4)c[nH]c3n2)c(OC)c1
Compound 0.0316 µM
  viability, T/C: 89.3% [middle of 4 runs]
Compound 1 µM
  viability, T/C: 101% [middle of 12 runs]
Compound 3.16 µM
  viability, T/C: 94.7% [middle of 12 runs]
Compound 10 µM
  viability, T/C: 101% [middle of 12 runs]
Compound alone, run of 09/19/2023
  IC50: > 10 µM

## C#Cc1c(F)ccc2cc(O)cc(-c3ncc4c(N5CC6CCC(C5)N6)nc(OCC56CCCN5CC(F)C6)nc4c3F)c12 (stereo not given) + CN1CCN(c2cc(C(=O)Nc3cc4cc(-c5cnn(C)c5)ccc4cn3)ccn2)CC1
[1]
  IC50: > 10 µM
[2]
  IC50: > 10 µM
[3]
  IC50: < 0.0316 µM
[4]
  IC50: < 0.0316 µM
[5]
  IC50: < 0.0316 µM
[6]
  IC50: < 0.0316 µM
[7]
  viability, T/C: 132%
[8]
  viability, T/C: 124%
[9]
  viability, T/C: 125%
[10]
  viability, T/C: 135%
[11]
  viability, T/C: 117%
[12]
  viability, T/C: 124%
[13]
  viability, T/C: 133%
[14]
  viability, T/C: 157%
[15]
  viability, T/C: 136%
[16]
  viability, T/C: 124%
[17]
  viability, T/C: 125%
[18]
  viability, T/C: 121%
[19]
  viability, T/C: 17.1%
[20]
  viability, T/C: 13.9%
[21]
  viability, T/C: 16%
[22]
  viability, T/C: 19.5%
[23]
  viability, T/C: 17.8%
[24]
  viability, T/C: 16.2%
[25]
  viability, T/C: 1.68%
[26]
  viability, T/C: 1.68%
[27]
  viability, T/C: 2.02%
[28]
  viability, T/C: 1.73%
[29]
  viability, T/C: 1.51%
[30]
  viability, T/C: 1.49%
[31]
  viability, T/C: 1.98%
[32]
  viability, T/C: 5.99%
[33]
  viability, T/C: 2.15%
[34]
  viability, T/C: 1.76%
[35]
  viability, T/C: 1.24%
[36]
  viability, T/C: 3.29%
[37]
  viability, T/C: 1.05%
[38]
  viability, T/C: 2.3%
[39]
  viability, T/C: 0.88%
[40]
  viability, T/C: 0.94%
[41]
  viability, T/C: 1%
[42]
  viability, T/C: 0.39%

## CCN1CCN(Cc2ccc(Nc3ncc(F)c(-c4cc(F)c5nc(C)n(C(C)C)c5c4)n3)nc2)CC1
Compound 0.00316 µM
  viability, T/C: 99.8% and 91.7%
Compound 0.01 µM
  viability, T/C: 94.1% and 88%
Compound 0.0316 µM
  viability, T/C: 92.4% and 109%
Compound 0.1 µM
  viability, T/C: 99.5% and 96.7%
Compound 0.316 µM
  viability, T/C: 103% and 93.4%
Compound 1 µM
  viability, T/C: 92.4% and 82.3%
Curve of compound
  IC50: > 1 µM
